Test results from PubChem BioAssay AID816 (SRMLSC, 2007).
Active and inactive are the calls of the source. The rule behind the calls is not given here.

System: S. cerevisiae GAL1 promoter reporter activation counterscreen
Test: yeast Gal1p promoter activation – S. cerevisiae, artefact control for yeast lifespan extension project (AID 816);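 note: yeast growth read after 24 h of incubation with compounds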

Row | Compound | EC50
1 | CSc1ccc(S(=O)(=O)NCc2ccc(Cl)cc2Cl)cc1 | > 40 µM (inactive)
2 | COC(=O)c1sc2ncn(-n3c(C)ccc3C)c(=O)c2c1C | > 40 µM (inactive)
3 | O=C(NCc1ccc(Cl)cc1)c1ccccc1CCc1ccccc1 | > 40 µM (inactive)
4 | CC(C)OCCCNS(=O)(=O)c1ccc2ccccc2c1 | > 40 µM (inactive)
5 | Cc1nc2c(=O)n(C)c(=O)n(C)c2nc1Cl | > 40 µM (inactive)
6 | O=S(=O)(Nc1nc2ccccc2nc1Cl)c1ccc2ccccc2c1 | > 40 µM (inactive)
7 | CN(C)CC(C(=O)c1ccccc1)c1ccccc1 (stereo not drawn) | > 40 µM (inactive)
8 | COc1ccc(-c2cc(N)n(S(=O)(=O)c3c(F)c(F)c(F)c(F)c3F)n2)cc1OC | > 40 µM (inactive)
9 | COc1cc(/C=C/C(=O)c2c(O)cc(C)oc2=O)cc(OC)c1O | > 40 µM (inactive)
10 | COC(=O)c1sc(S(=O)(=O)Nc2ccc(Br)cc2)c(C(=O)OC)c1C | > 40 µM (inactive)
11 | CC1Cc2ccccc2N1C(=O)Cn1cnc2ccccc2c1=O (stereo not drawn) | > 40 µM (inactive)
12 | CC1(C)CC(=O)C2=C(C1)OC1=C(C(=O)CC(C)(C)C1)C2c1ccc(O)cc1O | > 40 µM (inactive)
13 | O=C(c1ccc(F)cc1)C(CN1CCOCC1)c1ccccc1 (stereo not drawn) | > 40 µM (inactive)
14 | CC1(C)CC2c3cccc(C(=O)O)c3C(=O)N2c2c1ccc1ccccc21 (stereo not drawn) | > 40 µM (inactive)
15 | CNC(=O)/C(C#N)=C/c1c(F)cccc1Cl | > 40 µM (inactive)
16 | Cc1ncc(C23CC4CC(CC(C4)C2)C3)[nH]1 | > 40 µM (inactive)
17 | CCn1c(/N=C/c2ccccc2NS(=O)(=O)c2ccc(C)cc2)nc2ccccc21 | > 40 µM (inactive)
18 | Cc1ccc(C(=O)/C=C\C(=O)c2ccc(C)cc2)cc1 | > 40 µM (inactive)
19 | COc1ccc(C(CNC(=O)c2cccc(Br)c2)N2CCCC2)cc1 (stereo not drawn) | > 40 µM (inactive)
20 | Cc1ccc(S(=O)(=O)C(C#N)c2nc3ccccc3nc2N2CCCC2)cc1 (stereo not drawn) | > 40 µM (inactive)
21 | Cc1cc(N=Cc2c(O)ccc3ccccc23)no1 | > 40 µM (inactive)
22 | CC(C)(C)C1CCc2[nH]nc(C(=O)O)c2C1 (stereo not drawn) | > 40 µM (inactive)
23 | CCn1ccc(C(=O)Nc2ccc(S(=O)(=O)Nc3ccccc3OC)cc2)n1 | > 40 µM (inactive)
24 | CCn1c(=O)c2ccccc2n2c(SCC(=O)N3CCCc4ccccc43)nnc12 | > 40 µM (inactive)
25 | COc1ccccc1N(CN1CCCC1=O)C(=O)c1c(F)cccc1F | > 40 µM (inactive)

Row | Compound | EC50
26 | Cc1ccc(C(=O)C2C(=O)c3ccccc3C2=O)cc1 | > 40 µM (inactive)
27 | CCCCSc1nc(O)c(C2OC(=O)c3c2ccc(OC)c3OC)c(=O)n1C (stereo not drawn) | > 40 µM (inactive)
28 | CCSc1nnc(NC(=O)CSc2nc(C)cc(C)n2)s1 | > 40 µM (inactive)
29 | Cc1ccc(-c2ccc(/C=C3\C(=O)ON=C3c3ccccc3)o2)c([N+](=O)[O-])c1 | > 40 µM (inactive)
30 | Cc1ccccc1NC(=O)c1ccccc1 | > 40 µM (inactive)
31 | O=[N+]([O-])c1c(C(Cl)Cl)nn(-c2ccccc2)c1N1CCCC1 | > 40 µM (inactive)
32 | CCN1C(=O)C(=Cc2ccc(C)s2)C(=O)N(CC)C1=S | > 40 µM (inactive)
33 | O=C(Oc1ccc([N+](=O)[O-])cc1)c1ccc2ccccc2n1 | > 40 µM (inactive)
34 | CC(=O)Oc1c(C(=O)c2nnc(C)o2)c(=O)n(C)c2ccccc12 | > 40 µM (inactive)
35 | CN(C)c1ccc(S(=O)(=O)c2ccc(Cl)cc2)cc1 | > 40 µM (inactive)
36 | COc1ccccc1CNC(=O)C(CCSC)NS(=O)(=O)c1ccc2c(c1)oc(=O)n2C (stereo not drawn) | > 40 µM (inactive)
37 | ClC(Cl)(c1nnnn1-c1ccccc1)c1nnnn1-c1ccccc1 | > 40 µM (inactive)
38 | COc1ccc(C(=O)Nc2ccc(OCc3ccccc3)cc2)cc1[N+](=O)[O-] | > 40 µM (inactive)
39 | CC(c1ccccc1)N1CCn2c(nc3cc(NC(=O)c4cccs4)ccc32)C1 (stereo not drawn) | > 40 µM (inactive)
40 | C=CCn1c(C)cc(C(=O)COc2ncnc3sccc23)c1C | > 40 µM (inactive)
41 | N#Cc1c(-c2ccccc2)c(-c2ccccc2)nn(CC(=O)NNC(=O)Nc2ccccc2)c1=O | > 40 µM (inactive)
42 | CC(C)(C)OC(=O)[C@H]1[C@H](c2ccc([N+](=O)[O-])cc2)C2(C(=O)c3ccccc3C2=O)C2c3ccccc3C=NN21 (stereo partly drawn) | > 40 µM (inactive)
43 | O=c1c2[nH]c3ccccc3c2ncn1Cc1ccco1 | > 40 µM (inactive)
44 | COc1ccc2c(=O)c3c(=O)n(Cc4ccco4)c(-c4ccco4)nc3oc2c1 | > 40 µM (inactive)
45 | C/C(=N\NC(=O)c1ccccc1O)c1c(O)cc(C)oc1=O | > 40 µM (inactive)
46 | O=C1/C(=N/n2cnnc2)c2ccccc2N1Cc1ccccc1 | > 40 µM (inactive)
47 | O=c1c(Cl)c(NCCCO)cnn1-c1nc2ccccc2[nH]1 | > 40 µM (inactive)
48 | CCCCC(=O)Nc1ccc(C(=O)NNC(=S)NC(=O)c2cccs2)cc1 | > 40 µM (inactive)
49 | CN1C/C(=C/c2cccnc2)C(=O)/C(=C/c2cccnc2)C1 | > 40 µM (inactive)
50 | CCOC(=O)C1Cc2cc3c(cc2C1=O)CC(C(=O)OCC)C3=O (stereo not drawn) | > 40 µM (inactive)

Row | Compound | EC50
51 | COc1ccc(CC(=O)Nc2ccc3c(c2)CCC3)cc1S(=O)(=O)N1CCOCC1 | > 40 µM (inactive)
52 | Cc1ccc(S(=O)(=O)N[C@@H](Cc2ccccc2)C(=O)CCl)cc1 | > 40 µM (inactive)
53 | Cn1c(=O)c2c(nc(Br)n2Cc2ccc3ccccc3c2)n(C)c1=O | > 40 µM (inactive)
54 | O=C(Nc1scc(-c2ccc(F)cc2)c1C(=O)O)c1ccco1 | > 40 µM (inactive)
55 | Cc1ccc(C)c(N2CCN(S(=O)(=O)c3c(C)noc3/C=C/N(C)C)CC2)c1 | > 40 µM (inactive)
56 | CCOC(=O)C1C(c2cccs2)NC(=O)N(C)C1(O)C(F)(F)F (stereo not drawn) | > 40 µM (inactive)
57 | COc1cnc(-c2ccccn2)nc1Sc1cccc(Cl)c1 | > 40 µM (inactive)
58 | O=C(Nc1nccs1)c1ccc2c(=O)n3c(nc2c1)CCCCC3 | > 40 µM (inactive)
59 | Cn1c(=O)c(=O)n(C)c2cc(S(=O)(=O)N3CCN(Cc4ccccc4)CC3)ccc21 | > 40 µM (inactive)
60 | O=C(Cn1nc(Cl)nc1Cl)c1cc2ccccc2oc1=O | > 40 µM (inactive)
61 | CCCn1c(C)cc(C(=O)COc2ncnc3sccc23)c1C | > 40 µM (inactive)
62 | CCCCC(=Nc1ccc(N)cc1)C1=C(O)C(C(=O)OC)C(C)(C)CC1=O (stereo not drawn) | > 40 µM (inactive)
63 | Cc1ccc(C(=O)c2no[n+]([O-])c2C(=O)c2ccc(C)cc2)cc1 | > 40 µM (inactive)
64 | COc1ccccc1CN(Cc1nc2ccccc2c(=O)[nH]1)C(=O)Nc1cccc(C)c1 | > 40 µM (inactive)
65 | Fc1cccc2sc(Nc3nnc(-c4ccco4)o3)nc12 | > 40 µM (inactive)
66 | CC1CCc2cc(F)cc3c(O)c(C(=O)NCc4ccco4)c(=O)n1c23 (stereo not drawn) | > 40 µM (inactive)
67 | O=C(NC(=S)Nc1nc2c(s1)CSc1ccccc1-2)c1ccccc1 | > 40 µM (inactive)
68 | CC(=O)c1c(O)cc2n(c1=O)-c1ccc(Cl)cc1C2(C)C | > 40 µM (inactive)
69 | O=[N+]([O-])c1cc2oc3c(c2c(C=NCc2ccncc2)c1O)CCCC3 | > 40 µM (inactive)
70 | O=C1c2ccccc2C(=O)N1c1ncc(Cc2ccc(Cl)cc2)s1 | > 40 µM (inactive)
71 | CCOc1ccc(NCc2nc3ccccc3n2CCOc2ccccc2)cc1 | > 40 µM (inactive)
72 | CCOC(=O)COc1ccccc1/C=C\[N+](=O)[O-] | > 40 µM (inactive)
73 | COc1cccc(/C=C2\C(=O)N(c3cccc(C)c3)C(=O)c3ccccc32)c1 | > 40 µM (inactive)
74 | O=C(/C(=C/c1ccccc1)n1cncn1)c1ccc(Cl)cc1Cl | > 40 µM (inactive)
75 | O=C(CCl)c1ccc(Cc2ncc(C(F)(F)F)cc2Cl)s1 | > 40 µM (inactive)

Row | Compound | EC50
76 | CN1CCN(CC(=O)Nc2ccc(Cl)cc2Cl)CC1 | > 40 µM (inactive)
77 | CCOC(=O)c1c(NC(=O)C2C3C=CC(C3)C2C(=O)O)sc2c1CCC(CC)C2 (stereo not drawn) | > 40 µM (inactive)
78 | O=C1C=CCC(/C=C/c2ccccc2)O1 (stereo not drawn) | > 40 µM (inactive)
79 | CCc1[nH]nc2c1C(c1ccc(Br)s1)C(C#N)=C(N)O2 (stereo not drawn) | > 40 µM (inactive)
80 | CC(=O)[C@H]1[C@H](c2cccc(Cl)c2)C(C#N)(C#N)[C@@H]2c3ccccc3C=CN21 | > 40 µM (inactive)
81 | COc1ccccc1C(=O)Oc1cc(N)n(S(=O)(=O)c2ccc(C)cc2)n1 | > 40 µM (inactive)
82 | Cc1cccc(NC(=O)c2c(O)c3cccc4c3n(c2=O)CCC4)n1 | > 40 µM (inactive)
83 | Cc1cc(C)c(NC(=O)/C(=C/c2ccccc2)c2ccccc2)c(C)c1 | > 40 µM (inactive)
84 | COC(=O)C1=C(C(=O)OC)SC(=C2C(=S)C(C)(C)N(C(=O)C(C)C)c3ccccc32)S1 | > 40 µM (inactive)
85 | COc1ccc(/C(O)=C/C(=O)C(=O)Nc2c(C)n(C)n(-c3ccccc3)c2=O)cc1 | > 40 µM (inactive)
86 | CC(=O)C(C(C)=O)c1c(Cl)c(O)c(O)c2c(C(=O)c3ccccc3)coc12 | > 40 µM (inactive)
87 | CCOC(=O)CCCNC(=O)COc1ccccc1C#N | > 40 µM (inactive)
88 | CC(C)c1noc2ncc(C(=O)c3cc(Cl)cc(Cl)c3O)cc12 | > 40 µM (inactive)
89 | COc1cc(OC)cc(-c2nc3ccccc3c(=O)n2OC(=O)c2ccc(Br)cc2)c1 | > 40 µM (inactive)
90 | CCc1nnc(N2C(=O)c3ccc(Oc4ccc([N+](=O)[O-])cc4)cc3C2=O)s1 | > 40 µM (inactive)
91 | COn1c(SC2CCCCC2)nc2ccccc2c1=O | > 40 µM (inactive)
92 | O=C(Nc1cccc(Cl)c1)c1ccc2c(=O)n3c(nc2c1)CCCCC3 | > 40 µM (inactive)
93 | COc1ccc(NC(=S)N2CCN(CCN=CC3=C(O)CC(c4ccccc4)CC3=O)CC2)cc1 (stereo not drawn) | > 40 µM (inactive)
94 | CCOc1ccc(OCC(=O)c2c(O)c3ccccc3oc2=O)cc1 | > 40 µM (inactive)
95 | Cc1n[nH]c(=O)n1-c1cccc(C(F)(F)F)c1 | > 40 µM (inactive)
96 | C/C(=N\NC(=O)c1ccccc1O)C1C(=O)c2ccccc2C1=O | > 40 µM (inactive)
97 | CS(=O)(=O)c1nc(-c2cccs2)cc(C(F)(F)F)n1 | > 40 µM (inactive)
98 | CC(c1ccco1)N(C(=O)c1ccccc1NS(=O)(=O)c1cc([N+](=O)[O-])ccc1Cl)c1ccccn1 (stereo not drawn) | > 40 µM (inactive)
